Values after ≈ are worked out from the molar mass of the structure shown. Structures can show the parent of a compound that is named as a salt.
Tests used:
[1] = Kinetic solubility assay (CLND), pH 6.8; assay type: physicochemical; conditions: aqueous buffer, kinetic from dmso stock; potassium phosphate buffer pH 6.8, 2% DMSO, 24 hours at ambient temperature
[2] = target: MDR1 (Homo sapiens (Human), UniProt P08183); assay: in vitro; conditions: MDCK-MDR1
[3] = target: IRAK4 (Homo sapiens (Human), UniProt Q9NWZ3); assay: IRAK4 MSD biochemical assay (2-hour 1 mM ATP); conditions: 0.1 nM IRAK4, 1 mM ATP, 2 hour at room temperature
Protocol: The 2-hour 1 mM ATP Biochemical Assay employed a MesoScale Detection (MSD) format.
The activity was quenched with 11 μl of 70 mM EDTA, pH 8.
To detect the phosphorylated biotinylated peptide substrate, 30 μl of the quenched reaction mixture was added to equivalent wells of a 384 well streptavidin coated MesoScale plate (Meso Scale Discovery #L21SA-1). After a 1 hour incubation of the plate for 1 hour at room temperature with gentle mixing, the plate wells were washed 3 times with 50 mM Tris, pH 7.5, 150 mM NaCl, 0.02% Tween-20.
A 25 μl volume of 1:500 anti-P-Threonine Rabbit polyclonal Antibody plus 1:500 Goat-anti-Rabbit Sulfo Tag Antibody (Meso Scale Discovery R32AB-1) in 50 mM Tris, pH 7.5, 150 mM NaCl, 0.02% Tween-20 plus 2% BSA was then added to each well. After a 1-hour incubation of the plate for 1 hour at room temperature with gentle mixing, the plate wells were washed, 3 times with 50 mM Tris, pH 7.5, 150 mM NaCl, 0.02% Tween-20.

[4] = Kpuu assay (in vivo brain-to-plasma unbound partition); conditions: brain (unbound) versus plasma (unbound); intravenous infusion 4 to 24 h; unbound brain/plasma ratio; read-out: Brain Kpu, u
Protocol: For the brain-to-plasma partition coefficient (Kp) evaluation, a dosing solution was intravenously infused into animals at a constant flow rate for 4 to 24 h. Blood samples were serially collected during infusion, and CSF and brain samples were harvested at the end of infusion.
Tissue samples were typically homogenized in phosphate buffer saline (PBS) using a bead ruptor.
CSF samples were typically diluted with 8% BSA in PBS to prevent from non-specific binding. Artificial CSF (aCSF) is used as the surrogate matrix.
Calibration curves were prepared by spiking the analyte(s) into blank matrices, which were processed together with plasma, tissue homogenate and/or CSF samples by protein precipitation using a proper organic solvent (e.g. acetonitrile and methanol) containing generic analogue internal standards (e.g. verapamil, chrysin and glyburide). Matrix matching was used when analyzing multiple matrices in the same run. Samples above the upper limit of quantitation (ULOQ) needed to be diluted into the calibration range using either a pre-extraction or post-extraction dilution approach.
Processed samples were analyzed by LC-MS/MS using a proper method performing within the acceptable sensitivity, selectivity, precision and accuracy. For an analytical run to be accepted, over 75% of the calibration standards in the dual calibration curves needed to be within 20% of the nominal concentrations.
Brain concentrations were compared against plasma concentrations at the corresponding timepoint for the calculation of partition coefficient (Kp).
Unbound drug partition coefficient (Kpuu), defined as the ratio of unbound drug partition across the blood-brain barrier, was calculated using the equation below:
[formula] • Cb: measured total drug concentration in brain • Fub: unbound drug fraction in brain • Cp: measured total drug concentration in plasma • Fup: unbound drug fraction in plasma
The unbound fraction of the test compound was determined based on the protocols described below.
% Free=(PAR of buffer side/PAR of plasma side)*100 • PAR—Peak area ratio (PAR) • Fu % Free. 100 • Fu=fraction unbound

Chain of MDR1 (P08183 whole entry): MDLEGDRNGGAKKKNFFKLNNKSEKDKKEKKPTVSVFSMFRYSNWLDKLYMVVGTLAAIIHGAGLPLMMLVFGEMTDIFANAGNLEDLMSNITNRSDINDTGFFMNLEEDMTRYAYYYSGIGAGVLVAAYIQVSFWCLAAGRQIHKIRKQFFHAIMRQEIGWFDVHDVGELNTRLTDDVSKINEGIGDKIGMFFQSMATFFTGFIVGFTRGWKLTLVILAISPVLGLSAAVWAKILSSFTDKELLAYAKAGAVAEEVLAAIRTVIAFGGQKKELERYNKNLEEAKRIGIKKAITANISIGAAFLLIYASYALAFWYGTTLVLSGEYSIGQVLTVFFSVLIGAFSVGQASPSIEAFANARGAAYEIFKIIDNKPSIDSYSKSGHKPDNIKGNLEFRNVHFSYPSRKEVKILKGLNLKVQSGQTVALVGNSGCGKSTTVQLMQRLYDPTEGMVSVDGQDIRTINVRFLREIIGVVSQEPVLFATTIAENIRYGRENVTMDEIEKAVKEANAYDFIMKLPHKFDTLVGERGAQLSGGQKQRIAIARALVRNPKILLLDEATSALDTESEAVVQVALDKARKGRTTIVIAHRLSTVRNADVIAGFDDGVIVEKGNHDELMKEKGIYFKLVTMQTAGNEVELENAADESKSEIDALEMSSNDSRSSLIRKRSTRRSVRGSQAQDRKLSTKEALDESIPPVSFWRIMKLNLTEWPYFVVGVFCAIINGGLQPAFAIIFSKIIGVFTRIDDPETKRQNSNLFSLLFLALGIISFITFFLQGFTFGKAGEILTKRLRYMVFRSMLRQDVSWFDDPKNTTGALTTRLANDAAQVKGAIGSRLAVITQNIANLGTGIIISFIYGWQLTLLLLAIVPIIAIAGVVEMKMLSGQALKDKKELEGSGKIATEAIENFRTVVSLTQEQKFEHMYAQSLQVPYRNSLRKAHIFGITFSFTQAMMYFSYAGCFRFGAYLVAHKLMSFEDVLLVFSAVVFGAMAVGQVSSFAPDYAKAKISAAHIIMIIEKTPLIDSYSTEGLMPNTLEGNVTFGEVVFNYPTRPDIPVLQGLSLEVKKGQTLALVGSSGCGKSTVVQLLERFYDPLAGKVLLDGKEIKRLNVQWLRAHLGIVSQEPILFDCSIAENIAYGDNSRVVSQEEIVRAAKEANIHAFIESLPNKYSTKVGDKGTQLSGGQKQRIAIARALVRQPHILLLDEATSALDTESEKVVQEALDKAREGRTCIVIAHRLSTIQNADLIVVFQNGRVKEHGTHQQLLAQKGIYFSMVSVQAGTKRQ
Chain of IRAK4 (Q9NWZ3 whole entry, the tested form may be a part): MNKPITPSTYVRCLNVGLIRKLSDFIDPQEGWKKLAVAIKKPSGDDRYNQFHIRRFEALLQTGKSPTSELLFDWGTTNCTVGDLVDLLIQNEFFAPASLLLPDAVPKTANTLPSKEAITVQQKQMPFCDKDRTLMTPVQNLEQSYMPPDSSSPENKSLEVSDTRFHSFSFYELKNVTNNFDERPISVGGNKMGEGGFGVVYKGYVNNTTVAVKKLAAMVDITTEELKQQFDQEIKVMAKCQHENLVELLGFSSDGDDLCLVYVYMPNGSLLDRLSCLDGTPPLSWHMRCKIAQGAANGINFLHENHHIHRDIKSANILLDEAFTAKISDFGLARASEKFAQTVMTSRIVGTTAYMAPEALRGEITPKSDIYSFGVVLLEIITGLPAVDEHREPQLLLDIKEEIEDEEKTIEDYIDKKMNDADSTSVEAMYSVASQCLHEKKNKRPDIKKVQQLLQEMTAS

SMILES | solubility kinetic at 24 h [1] [µg/mL] | efflux ratio at 120 min, 1 μM [2] | IC50 [3] [nM] | Kpuu (unbound brain-to-plasma partition coefficient) [4]
CC(C)Oc1cc2nc([C@]34CC[C@](C)(C3)OC4)cn2cc1C(=O)Nc1cccn([C@H]2C[C@@H]2F)c1=O (single isomer, unassigned) [Example 119] | 79 (≈ 164 µM) | 4.2 | 0.7 | 0.73
CC(C)Oc1nc2nc(C34COC(C)(C3)C4)cn2cc1C(=O)Nc1cccn(C2CC2(F)F)c1=O (stereo not drawn) [Example 84, N-(1-(2,2-difluorocyclopropyl)-2-oxo-1,2-dihydropyridin-3-yl)-7-isopropoxy-2-(1-methyl-2-oxabicyclo[2.1.1]hexan-4-yl)imidazo[1,2-a]pyrimidine-6-carboxamide] | 37.7 (≈ 77.7 µM) | 7.4 | 0.6 | 0.67
COC[C@@]12CC[C@@](c3cn4cc(C(=O)Nc5cccn([C@H]6C[C@H]6F)c5=O)c(OC(C)C)nc4n3)(CO1)C2 (single isomer, unassigned) [Example 132] | 70.5 (≈ 138 µM) | – | – | 0.14
CC(C)Oc1cc2nc(C34COC(C)(C3)C4)cn2cc1C(=O)Nc1cccn([C@H]2C[C@@H]2F)c1=O (single isomer, unassigned) [Example 155] | 35.8 (≈ 76.7 µM) | – | – | 0.36
CC(C)Oc1nc2nc(C34CCC(C)(C3)OC4)cn2cc1C(=O)Nc1cccn([C@H]2C[C@H]2C)c1=O (stereo in doubt) [Example 187, 7-isopropoxy-2-((1R,4S)-1-methyl-2-oxabicyclo[2.2.1]heptan-4-yl)-N-(1-((1S,2R)-2-methylcyclopropyl)-2-oxo-1,2-dihydropyridin-3-yl)imidazo[1,2-a]pyrimidine-6-carboxamide trifluoroacetate] | 55.1 | 10.9 | 0.2 | 0.19
CC(C)Oc1nc2nc(C[C@@H]3CCOC3)cn2cc1C(=O)Nc1cccn(C2CC2)c1=O (single isomer, unassigned) [Example 109] | 50.2 (≈ 115 µM) | 7.1 | 0.5 | 0.25
CC(C)Oc1cc2nc([C@]34CC[C@](C)(C3)OC4)cn2cc1C(=O)Nc1cccn(C2CC2)c1=O (single isomer, unassigned) [Example 5] | 32.9 (≈ 71.1 µM) | 6.1 | 0.1 | 0.38
Cc1cnc2c(NC(=O)c3cn4cc(C56CCC(C)(CC5)OC6)nc4nc3OC(C)C)cnn2c1 [Comparator 6B, 7-isopropoxy-2-(1-methyl-2-oxabicyclo[2.2.2]octan-4-yl)-N-(6-methylpyrazolo[1,5-a]pyrimidin-3-yl)imidazo[1,2-a]pyrimidine-6-carboxamide, reference compound] | 7.2 (≈ 15.1 µM) | 1.5 | 0.2 | 0
CC(C)Oc1cc2nc(C34CCC(C)(CC3)OC4)cn2cc1C(=O)Nc1ccn(C)n1 [Comparator 5C, 7-isopropoxy-N-(1-methyl-1H-pyrazol-3-yl)-2-(1-methyl-2-oxabicyclo[2.2.2]octan-4-yl)imidazo[1,2-a]pyridine-6-carboxamide, reference compound] | 39.6 (≈ 93.5 µM) | 2.2 | – | 0.4
CC(C)Oc1nc2nc([C@@]34CC[C@@](CF)(C3)OC4)cn2cc1C(=O)Nc1cccn(C2CC2)c1=O (single isomer, unassigned) [Example 46] | 9 (≈ 18.7 µM) | – | – | 1.81
CC(C)Oc1cc2nc([C@@]34CC[C@@](C)(C3)OC4)cn2cc1C(=O)Nc1cccn(C)c1=O (single isomer, unassigned) [Comparator 3D, reference compound] | 49.3 (≈ 113 µM) | 3.1 | – | 1.1
CC(C)Oc1nc2nc([C@]34CC[C@](C)(C3)OC4)cn2cc1C(=O)Nc1cccn([C@H]2C[C@H]2C)c1=O (single isomer, unassigned) [Example 186, trifluoroacetate] | 64.7 | 10.8 | 0.2 | 0.32
CC(C)Oc1nc2nc([C@@H]3CCCOC3)cn2cc1C(=O)Nc1cccn(C2CC2)c1=O (single isomer, unassigned) [Example 108] | – | 4 | 0.1 | 0.52
Cc1cnc2c(NC(=O)c3cn4cc(C56COC(C)(C5)C6)nc4nc3OC(C)C)cnn2c1 [Comparator 2B, 7-isopropoxy-2-(1-methyl-2-oxabicyclo[2.1.1]hexan-4-yl)-N-(6-methylpyrazolo[1,5-a]pyrimidin-3-yl)imidazo[1,2-a]pyrimidine-6-carboxamide, reference compound] | – | – | – | 0.3
CC(C)Oc1nc2nc(C34CCC(C)(CC3)OC4)cn2cc1C(=O)Nc1cccn(C)c1=O [Comparator 6D, 7-isopropoxy-N-(-methyl-2-oxo-1,2-dihydropyridin-3-yl)-2-(1-methyl-2-oxabicyclo[2.2.2]octan-4-yl)imidazo[1,2-a]pyrimidine-6-carboxamide, reference compound] | 11.2 (≈ 24.8 µM) | 3 | – | 0.4
COC[C@]12CC[C@](c3cn4cc(C(=O)Nc5cccn([C@H]6C[C@H]6F)c5=O)c(OC(C)C)nc4n3)(CO1)C2 (single isomer, unassigned) [Example 130] | 63.6 (≈ 124 µM) | – | – | 0.08
CC(C)Oc1nc2nc(C34COC(CF)(C3)C4)cn2cc1C(=O)Nc1cccn(C2CC2)c1=O [Example 10, N-(1-cyclopropyl-2-oxo-1,2-dihydropyridin-3-yl)-2-(1-(fluoromethyl)-2-oxabicyclo[2.1.1]hexan-4-yl)-7-isopropoxyimidazo[1,2-a]pyrimidine-6-carboxamide] | 79.3 (≈ 170 µM) | – | – | 0.22
CC(C)Oc1cc2nc(C34CCC(C)(CC3)OC4)cn2cc1C(=O)Nc1cccn(C)c1=O [Comparator 5D, 7-isopropoxy-N-(1-methyl-2-oxo-1,2-dihydropyridin-3-yl)-2-(1-methyl-2-oxabicyclo[2.2.2]octan-4-yl)imidazo[1,2-a]pyridine-6-carboxamide, reference compound] | 45.6 (≈ 101 µM) | 2 | – | 0.6
CC(C)Oc1nc2nc([C@@]34CC[C@@](C)(C3)OC4)cn2cc1C(=O)Nc1cccn(C2CC2)c1=O (single isomer, unassigned) [Example 12] | 22.3 (≈ 48.1 µM) | – | – | 0.33
O=C(Nc1cccn(C2CC2)c1=O)c1cn2cc(C34COC(CF)(C3)C4)nc2nc1OC1CCC1 [Example 33, 7-cyclobutoxy-N-(1-cyclopropyl-2-oxo-1,2-dihydropyridin-3-yl)-2-(1-(fluoromethyl)-2-oxabicyclo[2.1.1]hexan-4-yl)imidazo[1,2-a]pyrimidine-6-carboxamide] | 10.1 (≈ 21.1 µM) | – | – | 0.45
CC(C)Oc1nc2nc([C@@]34CC[C@@](C)(C3)OC4)cn2cc1C(=O)Nc1cccc(C(F)F)n1 (single isomer, unassigned) [Comparator 4A, reference compound] | 2 (≈ 4.37 µM) | 0.7 | – | 0.4
CC(C)Oc1cc2nc(C34COC(C)(C3)C4)cn2cc1C(=O)Nc1cccc(C(F)F)n1 [Comparator 1A, N-(6-(difluoromethyl)pyridin-2-yl)-7-isopropoxy-2-(1-methyl-2-oxabicyclo[2.1.1]hexan-4-yl)imidazo[1,2-a]pyridine-6-carboxamide, reference compound] | 2.1 (≈ 4.75 µM) | 0.9 | – | 0.4
CC(C)Oc1nc2nc(C34COC(C)(C3)C4)cn2cc1C(=O)Nc1cccn([C@H]2C[C@H]2C)c1=O [Example 136, 7-isopropoxy-2-(1-methyl-2-oxabicyclo[2.1.1]hexan-4-yl)-N-(1-((1S,2R)-2-methylcyclopropyl)-2-oxo-1,2-dihydropyridin-3-yl)imidazo[1,2-a]pyrimidine-6-carboxamide] | – | – | – | 0.4
CC(C)Oc1nc2nc(C34COC(C)(C3)C4)cn2cc1C(=O)Nc1cccc(C(F)F)n1 [Comparator 2A, N-(6-(difluoromethyl)pyridin-2-yl)-7-isopropoxy-2-(1-methyl-2-oxabicyclo[2.1.1]hexan-4-yl)imidazo[1,2-a]pyrimidine-6-carboxamide, reference compound] | 2.4 (≈ 5.41 µM) | 1.1 | – | 0.4
CC(C)Oc1nc2nc(C34COC(C)(C3)C4)cn2cc1C(=O)Nc1cccn([C@H]2C[C@H]2F)c1=O [Example 159, N-(1-((1S,2R)-2-fluorocyclopropyl)-2-oxo-1,2-dihydropyridin-3-yl)-7-isopropoxy-2-(1-methyl-2-oxabicyclo[2.1.1]hexan-4-yl)imidazo[1,2-a]pyrimidine-6-carboxamide] | – | – | – | 0.28
CC[C@H](C)Oc1nc2nc([C@]34CC[C@](C)(C3)OC4)cn2cc1C(=O)Nc1cccn(C2CC2)c1=O [Example 50, 7-((S)-sec-butoxy)-N-(1-cyclopropyl-2-oxo-1,2-dihydropyridin-3-yl)-2-((1R,4S)-1-methyl-2-oxabicyclo[2.2.1]heptan-4-yl)imidazo[1,2-a]pyrimidine-6-carboxamide] | – | 2.9 | 0.5 | 0.66

— patent US20240116922A1, “IMIDAZO[1,2-A]PYRIDINE DERIVATIVES AS IRAK4 INHIBITORS AND THEIR USE IN THE TREATMENT OF DISEASE” (BIOGEN MA INC., priority 2020, published 2024)
